The text below walks through data of ChEMBL document CHEMBL1764973 (J Med Chem, 2011).

The structures appear in SMILES notation. A value given as a limit tells only on which side of the number the result lay.

A short description of assay [1]: Binding affinity to benzodiazepine binding site of GABAA receptor.
Assay [2] has as its target Cannabinoid receptor 1 (Homo sapiens, UniProt P21554). Briefly: Displacement of [3H]CP55940 from CB1 receptor.
Assay [3] has as its target Translocator protein (Rattus norvegicus, UniProt P16257).
For assay [4], the target named is Cannabinoid receptor 2 (Homo sapiens, UniProt P34972). Briefly: Displacement of [3H]CP55940 from CB2 receptor.
Chain of Cannabinoid receptor 2 (P34972 whole entry): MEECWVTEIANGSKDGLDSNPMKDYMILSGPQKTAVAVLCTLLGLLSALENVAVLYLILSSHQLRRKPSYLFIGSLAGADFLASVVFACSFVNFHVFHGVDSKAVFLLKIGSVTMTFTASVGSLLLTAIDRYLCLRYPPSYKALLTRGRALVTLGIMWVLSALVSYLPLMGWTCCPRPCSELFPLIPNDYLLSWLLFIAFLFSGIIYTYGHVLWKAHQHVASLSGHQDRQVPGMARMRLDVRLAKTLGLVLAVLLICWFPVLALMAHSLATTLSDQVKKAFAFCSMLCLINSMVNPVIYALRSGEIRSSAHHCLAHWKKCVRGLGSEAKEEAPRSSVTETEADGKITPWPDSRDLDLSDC
Assay [5] has as its target Mu-type opioid receptor (Homo sapiens) (UniProt P35372). The conditions noted are these: 10 uM.
For assay [6], the target named is Vasopressin V2 receptor (Homo sapiens) (UniProt P30518). The conditions noted are these: 10 uM.
Assay [7] concerns the target D(4) dopamine receptor (Homo sapiens) (UniProt P21917). Particulars: 10 uM.
Assay [8] has as its target Alpha-2C adrenergic receptor (Homo sapiens) (UniProt P18825). The conditions noted are these: 10 uM.
For assay [9], the target named is 5-hydroxytryptamine receptor 5A (Homo sapiens) (UniProt P47898). The conditions noted are these: 10 uM.
Assay [10] addresses Histamine H4 receptor (Homo sapiens) (UniProt Q9H3N8). The conditions noted are these: 10 uM.
The target of assay [11] is Alpha-2B adrenergic receptor (Homo sapiens) (UniProt P18089). The conditions noted are these: 10 uM.
Chain of Alpha-2B adrenergic receptor (Homo sapiens) (P18089 whole entry): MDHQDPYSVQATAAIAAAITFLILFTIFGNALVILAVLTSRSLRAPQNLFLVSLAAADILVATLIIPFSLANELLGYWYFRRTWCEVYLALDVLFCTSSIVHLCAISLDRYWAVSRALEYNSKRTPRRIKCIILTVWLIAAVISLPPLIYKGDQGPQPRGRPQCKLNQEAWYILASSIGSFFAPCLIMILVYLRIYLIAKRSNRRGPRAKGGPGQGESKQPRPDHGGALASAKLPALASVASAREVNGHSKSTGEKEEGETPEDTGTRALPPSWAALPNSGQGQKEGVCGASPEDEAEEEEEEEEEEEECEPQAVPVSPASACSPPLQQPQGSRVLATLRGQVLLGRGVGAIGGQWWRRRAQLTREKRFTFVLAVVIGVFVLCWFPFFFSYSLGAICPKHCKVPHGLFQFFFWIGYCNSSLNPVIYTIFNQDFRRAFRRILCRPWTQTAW
Assay [12] deals with T1, 5-hydroxytryptamine receptor 1D (Homo sapiens, UniProt P28221). Particulars: 10 uM.
T1 sequence (P28221 whole entry): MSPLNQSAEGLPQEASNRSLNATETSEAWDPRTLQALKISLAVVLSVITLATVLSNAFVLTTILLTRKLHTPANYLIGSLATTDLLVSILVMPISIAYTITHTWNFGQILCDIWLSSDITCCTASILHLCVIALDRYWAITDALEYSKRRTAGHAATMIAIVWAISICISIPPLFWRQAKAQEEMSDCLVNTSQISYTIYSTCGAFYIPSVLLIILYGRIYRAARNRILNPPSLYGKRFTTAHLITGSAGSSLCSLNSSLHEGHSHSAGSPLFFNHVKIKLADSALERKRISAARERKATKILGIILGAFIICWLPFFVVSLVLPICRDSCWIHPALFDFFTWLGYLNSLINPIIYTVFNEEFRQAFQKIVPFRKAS
Assay [13] has as its target 5-hydroxytryptamine receptor 1E (Homo sapiens) (UniProt P28566). Particulars: 10 uM.
In assay [14] the target is 5-hydroxytryptamine receptor 7 (Homo sapiens) (UniProt P34969). The conditions noted are these: 10 uM.
Assay [15] deals with Alpha-2A adrenergic receptor (Homo sapiens) (UniProt P08913). Particulars: 10 uM.
Assay [16] deals with Delta-type opioid receptor (Homo sapiens) (UniProt P41143). The conditions noted are these: 10 uM.
For assay [17], the target named is D(3) dopamine receptor (Homo sapiens) (UniProt P35462). The conditions noted are these: 10 uM.
The target of assay [18] is Muscarinic acetylcholine receptor M2 (Homo sapiens) (UniProt P08172). The conditions noted are these: 10 uM.
Assay [19] deals with T1, 5-hydroxytryptamine receptor 1D. Briefly: Binding affinity to 5HT1D receptor by radioligand binding assay.
For assay [20], the target named is Beta-1 adrenergic receptor (Homo sapiens) (UniProt P08588). Particulars: 10 uM.
Assay [21] deals with Vasopressin V1b receptor (Homo sapiens) (UniProt P47901). The conditions noted are these: 10 uM.
Chain of Vasopressin V1b receptor (Homo sapiens) (P47901 whole entry): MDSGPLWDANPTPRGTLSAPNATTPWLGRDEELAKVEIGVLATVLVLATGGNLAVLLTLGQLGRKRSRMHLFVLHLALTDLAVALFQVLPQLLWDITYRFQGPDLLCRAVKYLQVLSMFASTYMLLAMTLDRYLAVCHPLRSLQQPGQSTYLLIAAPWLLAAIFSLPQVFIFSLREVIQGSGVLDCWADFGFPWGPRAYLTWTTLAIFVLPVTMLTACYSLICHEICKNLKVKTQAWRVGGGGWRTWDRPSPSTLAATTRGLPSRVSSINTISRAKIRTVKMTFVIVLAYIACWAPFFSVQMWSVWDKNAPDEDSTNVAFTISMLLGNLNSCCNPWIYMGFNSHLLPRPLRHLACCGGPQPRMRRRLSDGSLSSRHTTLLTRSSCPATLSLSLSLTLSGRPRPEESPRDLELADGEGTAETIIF
The target in assay [22] is 5-hydroxytryptamine receptor 6 (Homo sapiens) (UniProt P50406). Particulars: 10 uM.
Chain of 5-hydroxytryptamine receptor 6 (Homo sapiens) (P50406 whole entry): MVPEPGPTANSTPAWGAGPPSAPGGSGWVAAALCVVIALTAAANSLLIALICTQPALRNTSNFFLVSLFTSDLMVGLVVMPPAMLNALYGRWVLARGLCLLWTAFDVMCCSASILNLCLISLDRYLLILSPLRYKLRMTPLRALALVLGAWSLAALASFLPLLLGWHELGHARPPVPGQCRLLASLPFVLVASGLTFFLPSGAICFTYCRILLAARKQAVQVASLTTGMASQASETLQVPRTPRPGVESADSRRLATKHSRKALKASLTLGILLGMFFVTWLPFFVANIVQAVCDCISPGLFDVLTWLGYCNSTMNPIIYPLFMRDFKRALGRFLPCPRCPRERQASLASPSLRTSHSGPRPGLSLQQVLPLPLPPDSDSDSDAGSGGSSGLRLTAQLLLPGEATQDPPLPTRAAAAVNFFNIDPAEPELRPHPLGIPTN
Assay [23] concerns the target Histamine H1 receptor (Homo sapiens) (UniProt P35367). Particulars: 10 uM.
Assay [24] deals with D(2) dopamine receptor (Homo sapiens) (UniProt P14416). Particulars: 10 uM.
The target in assay [25] is Muscarinic acetylcholine receptor M4 (Homo sapiens) (UniProt P08173). The conditions noted are these: 10 uM.
The target of assay [26] is Histamine H3 receptor (Homo sapiens) (UniProt Q9Y5N1). Particulars: 10 uM.
Assay [27] concerns the target Sodium-dependent serotonin transporter (Homo sapiens) (UniProt P31645). Particulars: 10 uM.
The target in assay [28] is Alpha-1A adrenergic receptor (Homo sapiens) (UniProt P35348). Particulars: 10 uM.
Assay [29] has as its target Muscarinic acetylcholine receptor M5 (Homo sapiens) (UniProt P08912). The conditions noted are these: 10 uM.
The target in assay [30] is Sodium-dependent dopamine transporter (Homo sapiens) (UniProt Q01959). Particulars: 10 uM.
Assay [31] deals with Muscarinic acetylcholine receptor M3 (Homo sapiens) (UniProt P20309). Particulars: 10 uM.
For assay [32], the target named is 5-hydroxytryptamine receptor 2B (Homo sapiens) (UniProt P41595). Particulars: 10 uM.
Chain of 5-hydroxytryptamine receptor 2B (Homo sapiens) (P41595 whole entry): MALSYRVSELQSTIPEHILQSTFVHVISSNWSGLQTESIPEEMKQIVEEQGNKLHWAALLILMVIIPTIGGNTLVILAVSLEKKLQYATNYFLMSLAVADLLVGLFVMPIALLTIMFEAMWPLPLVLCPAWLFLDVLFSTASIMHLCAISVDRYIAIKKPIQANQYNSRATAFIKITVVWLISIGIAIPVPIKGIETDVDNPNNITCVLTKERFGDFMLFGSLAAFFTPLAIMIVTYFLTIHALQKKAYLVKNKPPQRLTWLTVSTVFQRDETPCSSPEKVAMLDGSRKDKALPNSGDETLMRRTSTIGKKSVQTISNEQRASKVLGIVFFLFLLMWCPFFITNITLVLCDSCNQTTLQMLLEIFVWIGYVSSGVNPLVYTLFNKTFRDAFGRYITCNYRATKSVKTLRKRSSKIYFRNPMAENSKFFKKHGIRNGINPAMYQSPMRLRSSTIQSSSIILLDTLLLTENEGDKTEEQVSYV
Assay [33] concerns the target D(1B) dopamine receptor (Homo sapiens, UniProt P21918). Description: Binding affinity to opamine D5 receptor by radioligand binding assay.
In assay [34] the target is 5-hydroxytryptamine receptor 1A (Homo sapiens) (UniProt P08908). The conditions noted are these: 10 uM.
In assay [35] the target is 5-hydroxytryptamine receptor 2A (Homo sapiens) (UniProt P28223). The conditions noted are these: 10 uM.
Chain of 5-hydroxytryptamine receptor 2A (Homo sapiens) (P28223 whole entry): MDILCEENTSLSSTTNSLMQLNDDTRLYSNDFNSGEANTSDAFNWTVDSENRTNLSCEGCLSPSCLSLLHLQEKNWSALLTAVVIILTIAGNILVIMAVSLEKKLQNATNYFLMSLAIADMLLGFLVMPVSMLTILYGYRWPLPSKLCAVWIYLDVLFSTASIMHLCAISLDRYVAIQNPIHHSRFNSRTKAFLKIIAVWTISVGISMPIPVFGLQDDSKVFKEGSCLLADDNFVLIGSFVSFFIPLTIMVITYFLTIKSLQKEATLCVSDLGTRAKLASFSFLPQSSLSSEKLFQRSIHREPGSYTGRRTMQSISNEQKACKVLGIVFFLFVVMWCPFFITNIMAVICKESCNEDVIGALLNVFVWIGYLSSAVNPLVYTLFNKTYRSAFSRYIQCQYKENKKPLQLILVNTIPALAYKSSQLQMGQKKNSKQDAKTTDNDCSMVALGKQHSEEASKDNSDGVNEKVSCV
The target in assay [36] is Muscarinic acetylcholine receptor M1 (Homo sapiens) (UniProt P11229). The conditions noted are these: 10 uM.
Assay [37] concerns the target D(1A) dopamine receptor (Homo sapiens) (UniProt P21728). The conditions noted are these: 10 uM.
For assay [38], the target named is Sigma non-opioid intracellular receptor 1 (Homo sapiens) (UniProt Q99720). Particulars: 10 uM.
Assay [39] addresses Alpha-1B adrenergic receptor (Homo sapiens) (UniProt P35368). Particulars: 10 uM.
The target in assay [40] is 5-hydroxytryptamine receptor 2C (Homo sapiens) (UniProt P28335). The conditions noted are these: 10 uM.
For assay [41], the target named is 5-hydroxytryptamine receptor 3A (Homo sapiens) (UniProt P46098). Particulars: 10 uM.
The target of assay [42] is Kappa-type opioid receptor (Homo sapiens, UniProt P41145). Briefly: Binding affinity to kappa opioid receptor by radioligand binding assay.
Assay [43] deals with Vasopressin V1a receptor (Homo sapiens) (UniProt P37288). The conditions noted are these: 10 uM.
Assay [44] deals with Histamine H2 receptor (Homo sapiens) (UniProt P25021). The conditions noted are these: 10 uM.
Assay [45] concerns the target Sodium-dependent noradrenaline transporter (Homo sapiens) (UniProt P23975). The conditions noted are these: 10 uM.
Assay [46] has as its target Beta-3 adrenergic receptor (Homo sapiens) (UniProt P13945). The conditions noted are these: 10 uM.

Chain of Cannabinoid receptor 1 (P21554 whole entry): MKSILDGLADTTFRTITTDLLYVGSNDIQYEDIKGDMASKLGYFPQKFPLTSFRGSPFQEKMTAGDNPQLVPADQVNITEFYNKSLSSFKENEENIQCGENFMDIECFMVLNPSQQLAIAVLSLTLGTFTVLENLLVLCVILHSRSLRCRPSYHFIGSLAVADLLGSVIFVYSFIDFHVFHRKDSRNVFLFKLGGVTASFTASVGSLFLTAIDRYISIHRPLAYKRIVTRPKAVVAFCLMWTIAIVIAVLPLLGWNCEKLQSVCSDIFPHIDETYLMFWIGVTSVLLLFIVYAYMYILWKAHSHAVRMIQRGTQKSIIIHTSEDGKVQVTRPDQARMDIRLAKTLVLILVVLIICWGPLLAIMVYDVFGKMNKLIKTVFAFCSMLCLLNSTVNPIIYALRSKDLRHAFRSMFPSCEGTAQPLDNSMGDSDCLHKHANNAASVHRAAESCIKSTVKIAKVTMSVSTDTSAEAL
Chain of Translocator protein (P16257 whole entry, looked up): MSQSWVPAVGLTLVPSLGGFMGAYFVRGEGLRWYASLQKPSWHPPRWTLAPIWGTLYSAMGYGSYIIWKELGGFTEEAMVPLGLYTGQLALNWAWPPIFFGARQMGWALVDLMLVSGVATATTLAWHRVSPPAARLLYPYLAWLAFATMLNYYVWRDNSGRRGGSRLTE
Chain of Beta-3 adrenergic receptor (Homo sapiens) (P13945 whole entry, looked up): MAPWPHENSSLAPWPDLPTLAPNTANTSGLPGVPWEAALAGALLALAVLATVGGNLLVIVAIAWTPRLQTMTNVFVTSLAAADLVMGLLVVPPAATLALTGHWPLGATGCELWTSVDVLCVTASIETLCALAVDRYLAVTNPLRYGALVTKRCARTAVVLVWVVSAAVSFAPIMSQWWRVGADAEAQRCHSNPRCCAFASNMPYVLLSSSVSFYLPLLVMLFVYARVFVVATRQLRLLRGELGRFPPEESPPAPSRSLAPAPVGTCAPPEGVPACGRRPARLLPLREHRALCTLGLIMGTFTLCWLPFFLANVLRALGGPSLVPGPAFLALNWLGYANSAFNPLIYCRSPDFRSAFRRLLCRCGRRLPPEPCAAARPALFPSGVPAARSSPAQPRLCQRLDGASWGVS
Chain of D(1A) dopamine receptor (Homo sapiens) (P21728 whole entry): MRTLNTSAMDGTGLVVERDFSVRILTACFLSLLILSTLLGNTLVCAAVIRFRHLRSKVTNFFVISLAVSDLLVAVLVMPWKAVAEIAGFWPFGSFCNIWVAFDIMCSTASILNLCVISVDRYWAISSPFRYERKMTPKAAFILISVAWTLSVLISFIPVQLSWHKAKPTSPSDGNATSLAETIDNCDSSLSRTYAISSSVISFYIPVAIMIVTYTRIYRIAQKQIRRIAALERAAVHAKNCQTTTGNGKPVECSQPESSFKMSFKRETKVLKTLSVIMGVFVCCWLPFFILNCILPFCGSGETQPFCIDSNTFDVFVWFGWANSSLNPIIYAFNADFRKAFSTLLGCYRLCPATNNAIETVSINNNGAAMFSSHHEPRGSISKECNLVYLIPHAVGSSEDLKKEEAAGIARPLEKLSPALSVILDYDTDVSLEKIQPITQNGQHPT
Chain of Mu-type opioid receptor (Homo sapiens) (P35372 whole entry): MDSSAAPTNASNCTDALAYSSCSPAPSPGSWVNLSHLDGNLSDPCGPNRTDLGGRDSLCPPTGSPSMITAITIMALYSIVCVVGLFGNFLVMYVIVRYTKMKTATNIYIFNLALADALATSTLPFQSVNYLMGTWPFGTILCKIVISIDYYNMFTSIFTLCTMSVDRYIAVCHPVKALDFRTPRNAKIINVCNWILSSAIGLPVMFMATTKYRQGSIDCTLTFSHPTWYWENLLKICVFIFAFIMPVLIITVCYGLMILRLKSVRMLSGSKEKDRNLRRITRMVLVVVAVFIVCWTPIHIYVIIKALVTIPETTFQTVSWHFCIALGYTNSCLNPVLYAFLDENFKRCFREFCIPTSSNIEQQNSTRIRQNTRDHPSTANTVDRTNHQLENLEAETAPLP

The compound `Cc1c(C(=O)NC2(C#N)CCOCC2)nn(-c2ccccc2I)c1-c1ccccc1` displayed a Ki in assay [1] greater than 10 µM.
`Cc1c(C(=O)N(C)C2(C#N)CCOCC2)nn(-c2ccccc2Cl)c1-c1ccccc1`: the Ki was greater than 10 µM in assay [1], greater than 10 µM in [2], 0.88 µM in assay [3] and greater than 10 µM in assay [4].
In assay [1], `Cc1c(C(=O)NN2CCCCC2)nn(-c2ccc(Cl)cc2Cl)c1-c1ccc(Cl)cc1` [RIMONABANT] returned a Ki greater than 10 µM.
Take `Cc1c(C(=O)NC2(C#N)CCOCC2)nn(-c2ccccc2Br)c1-c1cccc(F)c1`: the Ki in assay [1], in assay [2] and in assay [4] was greater than 10 µM in each case.
For `Cc1c(C(=O)NC2(C#N)CCOCC2)nn(-c2ccc(Br)cc2)c1-c1ccccc1`, the inhibition constant (Ki) in [1] is greater than 10 µM; in [2], 0.259 µM; in [4], 0.655 µM.
In the case of `COc1ccc(-c2c(Br)c(C(=O)NC3(C#N)CCOCC3)nn2-c2cccc(Br)c2)cc1`, the Ki in assay [1] is greater than 10 µM.
On the same count and under the same terms, next, `Cc1c(C(=O)NC2(C#N)CCCCC2)nn(-c2ccccc2Br)c1-c1ccccc1`: greater than 10 µM.
With `COc1ccc(-c2c(C)c(C(=O)NC3(C#N)CCCCC3)nn2-c2ccccc2Br)cc1`, the inhibition in assay [5], in assay [6], in assay [7], in assay [8], in assay [9] and in [10] was less than 50% each time. Also, the inhibition in assay [11], in [12], in [13], in assay [14], in assay [15] and in assay [16] was less than 50% throughout. The inhibition in assay [17], in assay [18], in assay [20], in assay [21], in [22] and in assay [23] was less than 50% in each case. In addition, the inhibition in [24], in assay [25], in [26], in assay [27], in [28] and in assay [29] was less than 50% in each case. Also, the inhibition in [30], in assay [31], in [32], in [34], in [35] and in [36] was less than 50% each time. Besides, the inhibition in [37], in assay [38], in assay [39], in [40], in [41] and in [43] was less than 50% each time. Further, the inhibition in assay [44], in assay [45] and in assay [46] was less than 50% throughout. The Ki in [1] is greater than 10 µM; in [2], 0.0157 µM; in assay [19] it was greater than 10 µM; in [3], 0.279 µM; in [33], greater than 10 µM; in [42] it was 0.597 µM. This compound also yielded a Ki in assay [4] of 2.75 µM.
On to `Cc1c(C(=O)NC2(C#N)CCOCC2)nn(-c2ccccc2Br)c1-c1ccccc1`, for which the Ki in assay [1] was greater than 10 µM.
Same read-out and setting: with `Cc1c(C(=O)NC2(C#N)CCOCC2)nn(-c2ccccc2-c2ccccc2)c1-c1ccccc1` the figure was greater than 10 µM.
Turning to `Cc1c(C(=O)NC2(C#N)CCOCC2)nn(-c2ccccc2Cl)c1-c1ccccc1`, the Ki is greater than 10 µM in assay [1], greater than 10 µM in [2], 0.436 µM in [3] and greater than 10 µM in [4].
For the compound `Cc1c(C(=O)NC2(C#N)CCOCC2)nn(-c2cccc(Br)c2)c1-c1ccccc1`, the Ki in assay [1] was greater than 10 µM.
As for `Cc1c(C(=O)NC2(C#N)CCOCC2)nn(-c2ccccc2F)c1-c1ccccc1`, the Ki in assay [1] is greater than 10 µM.
For `COc1ccc(-c2c(C)c(C(=O)NC3(C#N)CCOCC3)nn2-c2cccc(Br)c2)cc1`, the Ki was greater than 10 µM in assay [1], 0.68 µM in assay [2] and 0.234 µM in assay [4].
With `COc1ccc(-c2c(C#N)c(C(=O)NC3(C#N)CCOCC3)nn2-c2ccccc2I)cc1`, the Ki in [1] was greater than 10 µM; in [2], greater than 10 µM; in assay [3] it was 1.92 µM; in [4] it was 2.37 µM.
On to `N#CC1(NC(=O)c2cc(-c3ccccc3)n(-c3ccccc3Br)n2)CCOCC1`, for which the Ki was greater than 10 µM in assay [1], 0.297 µM in assay [2], 3.11 µM in assay [3] and greater than 10 µM in assay [4].
`Cc1c(C(=O)NC2(C#N)CCOCC2)nn(-c2ccccc2Br)c1-c1ccc(F)cc1` displayed a Ki in assay [1] greater than 10 µM.
Take `COc1ccc(-c2c(C)c(C(=O)NC3(C#N)CCOCC3)nn2-c2ccccc2F)cc1`: the Ki in assay [1] was greater than 10 µM; in assay [2] it was 0.115 µM; in assay [4], 2.46 µM.
In turn, `CCC(C)N(C)C(=O)c1cc2ccccc2c(-c2ccccc2Cl)n1` (stereo not drawn) [PK-11195] returned a Ki in assay [1] greater than 10 µM.
For `N#Cc1c(C(=O)NC2(C#N)CCOCC2)nn(-c2ccccc2Br)c1-c1ccccc1`, the Ki in [1] is greater than 10 µM; in assay [2], 0.437 µM; in assay [3], 3.69 µM; in assay [4], greater than 10 µM.
